Results as given in ChEMBL document CHEMBL4814005, “Pragmatic recruitment of memantine as the capping group for the design of HDAC inhibitors: A preliminary attempt to unravel the enigma of glioblastoma” (Eur J Med Chem, 2021).
Calls of active or inactive are those of the source. No cut-off for these calls is given here.

system: U-87 MG; assay: Antiproliferation activity against human U-87 MG cells assessed as growth inhibition measured after 1 hr by MTT assay; type: functional, cell-based, U-87MG ATCC; conditions: not given

SMILES | IC50
CC12CC3CC(C)(C1)CC(N)(C3)C2.Cl [MEMANTINE HYDROCHLORIDE] | 23600 nM
CC12CC3CC(C)(C1)CC(NC(=O)CCCCCCCCC(=O)NO)(C3)C2 | 9460 nM
CC12CC3CC(C)(C1)CC(NC(=O)CCCCCCCC(=O)NO)(C3)C2 | 33600 nM
CC12CC3CC(C)(C1)CC(NC(=O)CCCCCCC(=O)NO)(C3)C2 | 18500 nM
CC12CC3CC(C)(C1)CC(NS(=O)(=O)c1ccc(/C=C/C(=O)NO)cc1)(C3)C2 | 1990 nM

system: U-87 MG; assay: Antiproliferation activity against human U-87 MG cells assessed as decrease in cell growth at 30 uM after 3 days by MTT assay; type: functional, U-87MG ATCC; parameters: scale not given: the % may be the effect or the level left; conditions: time 3 day

SMILES | Activity
CC12CC3CC(C)(C1)CC(N)(C3)C2.Cl [MEMANTINE HYDROCHLORIDE] | 50%

system: U-87 MG; assay: Antiproliferation activity against human U-87 MG cells assessed as growth inhibition at 10 uM after 3 days by MTT assay; type: functional, U-87MG ATCC; conditions: 72 h, time 3 day

SMILES | inhibition at 10 µM
CC12CC3CC(C)(C1)CC(NS(=O)(=O)c1ccc(/C=C/C(=O)NO)cc1)(C3)C2 | 90%

system: A 172; assay: Induction of cell cycle arrest in human A 172 cells assessed as accumulation at G2/M phase by propidium iodide staining based flow cytometric analysis; type: functional; conditions: dose microM <=10

SMILES | Activity
CC12CC3CC(C)(C1)CC(N)(C3)C2.Cl [MEMANTINE HYDROCHLORIDE] | 28%
CC12CC3CC(C)(C1)CC(NS(=O)(=O)c1ccc(/C=C/C(=O)NO)cc1)(C3)C2 | Dose-Dependent Effect

system: A 172; assay: Induction of cell cycle arrest in human A 172 cells assessed as accumulation at G0/G1 phase by propidium iodide staining based flow cytometric analysis; type: functional; conditions: dose microM <=10

SMILES | Activity
CC12CC3CC(C)(C1)CC(N)(C3)C2.Cl [MEMANTINE HYDROCHLORIDE] | 57%
CC12CC3CC(C)(C1)CC(NS(=O)(=O)c1ccc(/C=C/C(=O)NO)cc1)(C3)C2 | Dose-Dependent Effect

system: A 172; assay: Induction of apoptosis in human A 172 cells assessed as upregulation of activated caspase 3 protein at 3 uM after 24 hrs by western blot analysis; type: functional, cell-based; conditions: not given

SMILES | Activity
CC12CC3CC(C)(C1)CC(N)(C3)C2.Cl [MEMANTINE HYDROCHLORIDE] | inactive
CC12CC3CC(C)(C1)CC(NS(=O)(=O)c1ccc(/C=C/C(=O)NO)cc1)(C3)C2 | Active

system: A 172; assay: Induction of apoptosis in human A 172 cells assessed as upregulation of cleaved PARP at 3 uM after 24 hrs by western blot analysis; type: functional, cell-based; conditions: not given

SMILES | Activity
CC12CC3CC(C)(C1)CC(N)(C3)C2.Cl [MEMANTINE HYDROCHLORIDE] | inactive
CC12CC3CC(C)(C1)CC(NS(=O)(=O)c1ccc(/C=C/C(=O)NO)cc1)(C3)C2 | Active

target: Histone deacetylase 1 (Homo sapiens, UniProt Q13547); assay: Inhibition of human recombinant HDAC1 expressed in baculovirus infected insect cells using [RHKK(Ac)] fluorogenic substrate; conditions: not given
Sequence (Q13547 whole entry): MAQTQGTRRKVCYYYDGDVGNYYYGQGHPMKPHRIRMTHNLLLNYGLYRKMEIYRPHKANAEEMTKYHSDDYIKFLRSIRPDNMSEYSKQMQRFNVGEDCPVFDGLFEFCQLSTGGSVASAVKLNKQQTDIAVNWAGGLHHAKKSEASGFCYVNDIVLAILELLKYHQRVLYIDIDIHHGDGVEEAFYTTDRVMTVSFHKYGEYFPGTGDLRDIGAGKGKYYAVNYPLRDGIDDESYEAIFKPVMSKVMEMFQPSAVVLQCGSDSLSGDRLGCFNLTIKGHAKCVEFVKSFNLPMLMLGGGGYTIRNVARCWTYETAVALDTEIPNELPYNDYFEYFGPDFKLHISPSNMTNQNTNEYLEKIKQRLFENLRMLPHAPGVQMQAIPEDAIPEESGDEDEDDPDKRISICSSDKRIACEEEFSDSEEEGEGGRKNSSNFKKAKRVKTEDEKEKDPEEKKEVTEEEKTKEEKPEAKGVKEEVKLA

SMILES | IC50
CC12CC3CC(C)(C1)CC(NC(=O)CCCCCCCCC(=O)NO)(C3)C2 | 5240 nM
CC12CC3CC(C)(C1)CC(NC(=O)CCCCCCCC(=O)NO)(C3)C2 | 2800 nM
CC12CC3CC(C)(C1)CC(NC(=O)CCCCCCC(=O)NO)(C3)C2 | 4430 nM
CC12CC3CC(C)(C1)CC(NS(=O)(=O)c1ccc(/C=C/C(=O)NO)cc1)(C3)C2 | 950 nM

target: Histone deacetylase 3 (Homo sapiens, UniProt O15379); assay: Inhibition of human recombinant HDAC3 using [RHKK(Ac)] fluorogenic substrate; conditions: not given
Sequence (O15379 whole entry): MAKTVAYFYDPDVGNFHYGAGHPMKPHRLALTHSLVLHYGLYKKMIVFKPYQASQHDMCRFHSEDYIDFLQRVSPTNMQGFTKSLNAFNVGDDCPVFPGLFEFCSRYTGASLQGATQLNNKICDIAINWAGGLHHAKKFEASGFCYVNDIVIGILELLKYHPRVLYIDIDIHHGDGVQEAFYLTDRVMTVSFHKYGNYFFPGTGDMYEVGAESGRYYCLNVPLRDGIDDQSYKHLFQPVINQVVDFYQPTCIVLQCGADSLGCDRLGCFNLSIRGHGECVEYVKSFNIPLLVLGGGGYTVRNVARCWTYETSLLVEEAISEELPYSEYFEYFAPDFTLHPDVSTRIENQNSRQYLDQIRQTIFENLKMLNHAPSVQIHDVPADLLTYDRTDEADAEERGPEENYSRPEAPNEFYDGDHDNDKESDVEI

SMILES | IC50
CC12CC3CC(C)(C1)CC(NC(=O)CCCCCCCCC(=O)NO)(C3)C2 | 3450 nM
CC12CC3CC(C)(C1)CC(NC(=O)CCCCCCCC(=O)NO)(C3)C2 | 4130 nM
CC12CC3CC(C)(C1)CC(NC(=O)CCCCCCC(=O)NO)(C3)C2 | 12600 nM
CC12CC3CC(C)(C1)CC(NS(=O)(=O)c1ccc(/C=C/C(=O)NO)cc1)(C3)C2 | 1030 nM

target: T1, Protein deacetylase HDAC6 (Homo sapiens, UniProt Q9UBN7); assay: Inhibition of human recombinant HDAC6 expressed in baculovirus infected insect cells using [RHKK(Ac)] fluorogenic substrate; conditions: not given
T1 sequence (Q9UBN7 whole entry): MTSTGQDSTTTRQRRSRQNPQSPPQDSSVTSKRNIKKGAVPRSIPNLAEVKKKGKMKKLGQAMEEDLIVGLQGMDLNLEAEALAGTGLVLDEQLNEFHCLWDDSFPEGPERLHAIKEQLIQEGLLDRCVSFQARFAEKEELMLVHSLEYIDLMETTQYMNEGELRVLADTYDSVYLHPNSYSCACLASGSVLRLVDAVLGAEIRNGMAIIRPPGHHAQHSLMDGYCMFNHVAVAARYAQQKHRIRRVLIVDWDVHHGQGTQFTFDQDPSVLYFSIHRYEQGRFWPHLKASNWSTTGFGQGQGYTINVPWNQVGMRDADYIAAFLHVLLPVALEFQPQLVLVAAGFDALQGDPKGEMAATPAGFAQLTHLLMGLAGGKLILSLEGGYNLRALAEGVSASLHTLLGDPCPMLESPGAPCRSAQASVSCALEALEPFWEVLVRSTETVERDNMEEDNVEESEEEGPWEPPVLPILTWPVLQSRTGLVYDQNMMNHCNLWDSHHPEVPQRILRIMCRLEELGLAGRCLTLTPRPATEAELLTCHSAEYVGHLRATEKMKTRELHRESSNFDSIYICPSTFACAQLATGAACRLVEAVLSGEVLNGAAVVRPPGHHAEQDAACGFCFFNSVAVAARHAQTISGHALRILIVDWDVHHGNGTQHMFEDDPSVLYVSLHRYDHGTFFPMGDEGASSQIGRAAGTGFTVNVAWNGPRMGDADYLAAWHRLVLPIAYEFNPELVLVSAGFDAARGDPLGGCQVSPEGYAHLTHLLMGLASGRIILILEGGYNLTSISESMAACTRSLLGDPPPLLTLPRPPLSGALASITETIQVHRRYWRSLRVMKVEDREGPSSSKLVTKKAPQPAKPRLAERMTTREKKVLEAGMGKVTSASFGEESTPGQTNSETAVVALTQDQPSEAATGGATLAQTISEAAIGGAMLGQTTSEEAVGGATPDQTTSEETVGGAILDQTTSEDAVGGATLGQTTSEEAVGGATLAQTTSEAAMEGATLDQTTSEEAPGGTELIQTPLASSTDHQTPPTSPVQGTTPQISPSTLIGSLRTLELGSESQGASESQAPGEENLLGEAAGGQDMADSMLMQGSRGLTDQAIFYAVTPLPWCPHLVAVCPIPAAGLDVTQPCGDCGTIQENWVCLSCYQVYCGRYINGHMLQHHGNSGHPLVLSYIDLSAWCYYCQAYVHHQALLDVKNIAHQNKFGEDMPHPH

SMILES | IC50
CC12CC3CC(C)(C1)CC(NC(=O)CCCCCCCCC(=O)NO)(C3)C2 | 270 nM
CC12CC3CC(C)(C1)CC(NC(=O)CCCCCCCC(=O)NO)(C3)C2 | 227 nM
CC12CC3CC(C)(C1)CC(NC(=O)CCCCCCC(=O)NO)(C3)C2 | 360 nM
CC12CC3CC(C)(C1)CC(NS(=O)(=O)c1ccc(/C=C/C(=O)NO)cc1)(C3)C2 | 103 nM

target: T2, Histone deacetylase 8 (Homo sapiens, UniProt Q9BY41); assay: Inhibition of human recombinant HDAC8 using [RHKK(Ac)] fluorogenic substrate; conditions: not given
T2 sequence (Q9BY41 whole entry): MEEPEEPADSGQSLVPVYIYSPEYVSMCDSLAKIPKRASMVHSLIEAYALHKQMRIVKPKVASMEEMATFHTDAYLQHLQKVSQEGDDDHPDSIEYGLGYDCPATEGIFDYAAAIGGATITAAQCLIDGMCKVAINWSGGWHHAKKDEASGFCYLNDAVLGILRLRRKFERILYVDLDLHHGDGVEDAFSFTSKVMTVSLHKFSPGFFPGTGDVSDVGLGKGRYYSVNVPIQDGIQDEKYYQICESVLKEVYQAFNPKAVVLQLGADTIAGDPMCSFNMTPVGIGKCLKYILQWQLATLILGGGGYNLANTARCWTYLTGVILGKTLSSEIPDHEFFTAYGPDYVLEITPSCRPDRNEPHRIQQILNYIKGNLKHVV

SMILES | IC50
CC12CC3CC(C)(C1)CC(NC(=O)CCCCCCCCC(=O)NO)(C3)C2 | 707 nM
CC12CC3CC(C)(C1)CC(NC(=O)CCCCCCCC(=O)NO)(C3)C2 | 1070 nM
CC12CC3CC(C)(C1)CC(NC(=O)CCCCCCC(=O)NO)(C3)C2 | 831 nM
CC12CC3CC(C)(C1)CC(NS(=O)(=O)c1ccc(/C=C/C(=O)NO)cc1)(C3)C2 | 7380 nM

system: not listed separately; assay: Permeability of compound by PAMPA-BBB assay; conditions: not given

SMILES | permeability
O=C(CCCCCCC(=O)Nc1ccccc1)NO [VORINOSTAT] | 1 10^-5 cm/s

system: U-87 MG; assay: Antiproliferation activity against human U-87 MG cells assessed as decrease in cell growth at 30 uM incubated for 2 days by MTT assay; type: functional, cell-based; conditions: U-87MG ATCC, time 2.0 day

SMILES | Activity
CC12CC3CC(C)(C1)CC(N)(C3)C2.Cl [MEMANTINE HYDROCHLORIDE] | inactive

system: A 172; assay: Induction of cell cycle arrest in human A 172 cells assessed as accumulation at S phase upto 10 uM by propidium iodide staining based flow cytometric analysis; type: functional; conditions: dose microM <=10

SMILES | Activity
CC12CC3CC(C)(C1)CC(N)(C3)C2.Cl [MEMANTINE HYDROCHLORIDE] | 10%

system: A 172; assay: Induction of cell cycle arrest in human A 172 cells assessed as sub-G1 population upto 10 uM after 2 days by flow cytometry/PI staining assay; type: functional, cell-based; conditions: dose microM <=10, time 2.0 day

SMILES | Activity
CC12CC3CC(C)(C1)CC(NS(=O)(=O)c1ccc(/C=C/C(=O)NO)cc1)(C3)C2 | Active
